Test results reported in ChEMBL document CHEMBL5303304, “EUbOPEN Chemogenomics Library - IncuCyte” (2023).

What was measured:
Assay type in all cases: toxicity, cell-based
HEK-293T = assay: Incucyte cell viability with HEK293T; details: human, 10 µM, compound concentration 10 uM
Fibroblast = assay: Incucyte cell viability with human fibroblast; details: 10 µM, compound concentration 10 uM
U2OS = assay: Incucyte cell viability with U2OS; details: human, 10 µM, compound concentration 10 uM
Also: unitless GR value; below 1 slowed growth and below 0 cell loss.

| SMILES | Growth Rate (HEK-293T; 6 h, replicate number 1) | Growth Rate (HEK-293T; 6 h, replicate number 2) | Growth Rate (HEK-293T; 12 h, replicate number 1) | Growth Rate (HEK-293T; 12 h, replicate number 2) | Growth Rate (HEK-293T; 18 h, replicate number 1) | Growth Rate (HEK-293T; 18 h, replicate number 2) | Growth Rate (HEK-293T; 24 h, replicate number 1) | Growth Rate (HEK-293T; 24 h, replicate number 2) | Growth Rate (Fibroblast; 0 h, replicate number 1) | Growth Rate (U2OS; 12 h, replicate number 1) | Growth Rate (U2OS; 12 h, replicate number 2) | Growth Rate (U2OS; 18 h, replicate number 1) | Growth Rate (U2OS; 18 h, replicate number 2) | Growth Rate (U2OS; 24 h, replicate number 1) | Growth Rate (Fibroblast; 24 h, replicate number 1) | Growth Rate (U2OS; 0 h, replicate number 2) | Growth Rate (Fibroblast; 6 h, replicate number 2) | Growth Rate (Fibroblast; 12 h, replicate number 2) | Growth Rate (Fibroblast; 18 h, replicate number 2) | Growth Rate (Fibroblast; 24 h, replicate number 2) | other results |
| --- | --- | --- | --- | --- | --- | --- | --- | --- | --- | --- | --- | --- | --- | --- | --- | --- | --- | --- | --- | --- | --- |
| CCN1CCN(Cc2ccc(Nc3ncc(F)c(-c4cc(F)c5nc(C)n(C(C)C)c5c4)n3)nc2)CC1 [ABEMACICLIB] | 0.74 | 0.78 | 0.31 | 0.37 | 0.35 | 0.44 | 0.54 | 0.44 | -1 | 0.83 | 0.9 | 0.62 | 0.56 | 0.63 | – | – | – | – | – | – | Growth Rate (HEK-293T; 0 h, replicate number 1): -1; Growth Rate (HEK-293T; 0 h, replicate number 2): -0.03; Growth Rate (U2OS; 0 h, replicate number 1): -0.95; Growth Rate (U2OS; 24 h, replicate number 2): 0.4 |
| CC(C)(C)c1ccc2c(c1)CC[C@H]2NC(=O)Nc1cccc2[nH]ncc12 [ABT-102] | 0.75 | 0.6 | 0.26 | 0.71 | 0.39 | 0.54 | 0.22 | 0.48 | 0.1 | – | 0.84 | – | 0.91 | – | 0.79 | -0.93 | – | – | – | – | Growth Rate (HEK-293T; 0 h, replicate number 2): 1; Growth Rate (Fibroblast; 0 h, replicate number 2): 0.41; Growth Rate (Fibroblast; 12 h, replicate number 1): -0.95; Growth Rate (U2OS; 24 h, replicate number 2): 0.9 |
| CC(=O)Oc1ccc2c(c1)[C@@]1(C)CCC[C@](C)(C(=O)OC(=O)[C@@]3(C)CCC[C@]4(C)c5cc(OC(C)=O)ccc5CC[C@@H]34)[C@@H]1CC2 [ACETYL PODOCARPIC ACID ANHYDRIDE] | – | 0.34 | – | 0.36 | 0.8 | 0.46 | – | 0.57 | 0.14 | 0.57 | 0.76 | 0.73 | 0.96 | 0.84 | 0.96 | 0.76 | 0.4 | 0.33 | 0.61 | 0.62 | Growth Rate (HEK-293T; 0 h, replicate number 1): 0.44; Growth Rate (HEK-293T; 0 h, replicate number 2): 0.84; Growth Rate (Fibroblast; 18 h, replicate number 1): 0.83; Growth Rate (U2OS; 0 h, replicate number 1): -0.55; Growth Rate (U2OS; 6 h, replicate number 1): 0.6; Growth Rate (U2OS; 6 h, replicate number 2): 0.92 |
| N[C@H](C(=O)O)[C@@H]1CC(Cl)=NO1 [ACIVICIN] | – | 0.69 | 0.69 | 0.57 | 0.51 | 0.37 | 0.43 | 0.37 | -1 | 0.81 | – | 0.99 | – | 0.51 | 0.22 | – | -0.62 | 0.4 | 0.21 | 0.56 | Growth Rate (HEK-293T; 0 h, replicate number 1): 0.17; Growth Rate (Fibroblast; 6 h, replicate number 1): -0.24; Growth Rate (Fibroblast; 12 h, replicate number 1): 0.08; Growth Rate (Fibroblast; 18 h, replicate number 1): 0.11 |
| COc1ccc(NC(=O)[C@@H]2C[C@H](C)CC[C@H]2C(C)C)cc1 [ACOLTREMON] | – | – | – | – | – | – | – | – | 0.31 | 0.93 | – | – | – | 0.94 | – | -0.89 | -0.34 | 0.74 | 0.61 | 0.67 | Growth Rate (HEK-293T; 0 h, replicate number 2): 0.02; Growth Rate (Fibroblast; 18 h, replicate number 1): 0.98; Growth Rate (U2OS; 6 h, replicate number 1): -0.13 |
| C=C(F)C(=O)N1CCN(c2nc(OC[C@@H]3CCCN3C)nc3c2CCN(c2cccc4cccc(Cl)c24)C3)C[C@@H]1CC#N [ADAGRASIB] | -0.26 | -0.86 | -0.28 | -0.57 | -0.25 | -0.46 | -0.21 | -0.38 | -1 | -0.94 | -0.11 | -0.89 | -0.27 | -0.76 | -0.3 | -0.94 | -0.86 | -0.18 | -0.27 | -0.22 | Growth Rate (Fibroblast; 6 h, replicate number 1): -0.47; Growth Rate (Fibroblast; 12 h, replicate number 1): -0.27; Growth Rate (Fibroblast; 18 h, replicate number 1): -0.26; Growth Rate (U2OS; 0 h, replicate number 1): -1; Growth Rate (U2OS; 6 h, replicate number 1): -0.94; Growth Rate (U2OS; 6 h, replicate number 2): 0.32; Growth Rate (U2OS; 24 h, replicate number 2): -0.3 |
| CC/C(=C(\c1ccc(O)cc1)c1ccc(OCCN(C)C)cc1)c1ccccc1 [AFIMOXIFENE] | -0.92 | -0.67 | -0.87 | -0.46 | -0.68 | -0.33 | -0.63 | -0.26 | 0.22 | – | – | – | – | 0.9 | – | -0.96 | 0.4 | 0.3 | 0.13 | 0.18 | Growth Rate (Fibroblast; 6 h, replicate number 1): -0.74 |
| CCc1cc2c(cc1N1CCC(N3CCOCC3)CC1)C(C)(C)c1[nH]c3cc(C#N)ccc3c1C2=O [ALECTINIB] | 0.56 | 0.59 | 0.83 | 0.86 | 0.95 | – | – | – | – | – | 0.78 | – | 1 | 0.91 | – | – | 0.58 | – | – | 0.89 | Growth Rate (U2OS; 6 h, replicate number 1): 0.77; Growth Rate (U2OS; 6 h, replicate number 2): 0.78; Growth Rate (U2OS; 24 h, replicate number 2): 0.94 |
| Cc1cc([N+](=O)[O-])c(NS(=O)(=O)c2cccc(C(=O)O)c2)cc1-c1cccnc1 [ALOFANIB] | – | 0.57 | 0.91 | 0.68 | 0.65 | 0.78 | 0.75 | 0.79 | – | 0.39 | 0.55 | 0.93 | 0.64 | – | 0.8 | 0.06 | 0.26 | 0.74 | 0.99 | 0.92 | Growth Rate (HEK-293T; 0 h, replicate number 1): -0.38; Growth Rate (Fibroblast; 0 h, replicate number 2): 0.25; Growth Rate (Fibroblast; 6 h, replicate number 1): 0.27; Growth Rate (Fibroblast; 12 h, replicate number 1): 0.56; Growth Rate (Fibroblast; 18 h, replicate number 1): 0.5; Growth Rate (U2OS; 0 h, replicate number 1): -0.35; Growth Rate (U2OS; 6 h, replicate number 1): 0.68; Growth Rate (U2OS; 6 h, replicate number 2): 0.28; Growth Rate (U2OS; 24 h, replicate number 2): 0.6 |
| O=c1cc(-c2ccccc2)oc2c1ccc1ccccc12 [ALPHA-NAPHTHOFLAVONE] | 0.31 | 0.53 | – | 0.81 | 0.95 | 0.8 | – | 0.88 | 0.97 | 0.67 | 0.63 | 0.92 | 0.66 | – | 0.65 | -0.73 | – | – | – | – | Growth Rate (U2OS; 6 h, replicate number 1): -0.07; Growth Rate (U2OS; 6 h, replicate number 2): 0.41 |
